In this data set the test system is patients with bipolar disorder. The data set can be described thus: Side effects reported in patient case reports. The class given is in vivo, human.

In the case of `CN(C)CCOC(c1ccccc1)c1ccccc1` [Benadryl], the akisthisia entry (Example 42: Benadryl 1x/day for akisthisia under Geodon) is on record as “significant improvement”.
For the compound `[Li]` [lithium], the side effects result is, setting by setting: (Example 7: lithium 300 mg tid, stopped) “intolerable side effects”; (Example 21: lithium 600 mg/day, improved at 300 mg) “tremulousness and stomach discomfort along with diarrhea”.
Turning to `O=C1Cc2cc(CCN3CCN(c4nsc5ccccc45)CC3)c(Cl)cc2N1` [Geodon, ziprasidone], the tolerability result (Example 42: Geodon 80 mg/day, felt like crawling out of their skin) is “could not tolerate the Geodon”.
In the case of `OCCOCCN1CCN(C2=Nc3ccccc3Sc3ccccc32)CC1` [Seroquel, quetiapine fumurate], for the setting “Example 15: Seroquel given by their psychiatrist”, the “effect on blood sugar” value is given as “elevated their blood sugar”. In addition, under “Example 18: Seroquel 400 mg”, the sedation entry is recorded as “excessive sedation in the AM”.

(Values after US8138169B2, “Combination therapy for bipolar disorder” (ComgenRx, Inc., priority 2008, dated 2012).)
